# From article PMC6333442, “Conserved allosteric pathways for activation of TRPV3 revealed through engineering vanilloid-sensitivity” (eLife, 2019)
# Tests used:
# [1] = system: TRPV3-6M/V2P (pore domain of rat TRPV2 in TRPV3-6M); assay: Two-electrode voltage clamp, TRPV3-6M/V2P chimera in oocytes; format: cell-based, mouse; settings: RTx 100 nM
# Procedure: All channel constructs were expressed in Xenopus laevis oocytes and studied using the two-electrode voltage clamp technique (TEVC) following 1–4 days of incubation after cRNA injection. The animal care and experimental procedures were performed in accordance with the Guide for the Care and Use of Laboratory Animals and were approved by the Animal Care and Use Committee of the National Institute of Neurological Disorders and Stroke (Animal protocol number 1253–17). Oocytes were removed surgically and incubated with agitation for 1 hr in a solution containing (in mM) 82.5 NaCl, 2.5 KCl, 1 MgCl2, 5 HEPES, pH 7.6 (with NaOH), and collagenase (2 mg/ml; Worthington Biochemical, Lakewood, NJ). Defolliculated oocytes were injected with cRNA for each of the constructs and incubated at 17°C in a solution containing (in mM) 96 NaCl, 2 KCl, 1 MgCl2, 1.8 CaCl2, 5 HEPES, pH 7.6 (with NaOH), and gentamicin (50 μg/ml, GIBCO-BRL, Gaithersburg, MD). Oocyte membrane voltage was controlled using an OC-725C oocyte clamp (Warner Instruments, Hamden, CT). Data were filtered at 1–3 kHz and digitized at 20 kHz using pClamp software (Molecular Devices, Sunnyvale, CA) and a Digidata 1440A digitizer (Axon Instruments). Microelectrode resistances were 0.1–1 MΩ when filled with 3 M KCl. For recording TRP channel currents, the external recording solution contained (in mM) 100 KCl, 10 HEPES, pH 7.6 (with KOH). […]
# For temperature-activation experiments, calcium-activated chloride currents were minimized by using calcium-free solution containing 30 µM Caccinh-A01 and recording at negative membrane voltages. Heat stimuli were achieved by passing the external recording solution through glass capillary spirals immersed in a water bath maintained at about 70°C, and recordings were performed during constant perfusion with temperature measured using a thermistor (TA-29, Warner Instruments) located close to the cell. […] The mean I vs T relations were calculated by automatically binning each of the recordings in temperature intervals of 2°C, and averaging a single data point within each interval per cell. […]
# [2] = target: T1, TRPV3-6M + 5PM (Mus musculus, UniProt Q8K424, A560T/A606V/F522S/F625L/F656I/F666Y/H523E/L557M/Q580E/V587L/W521Y); assay: Two-electrode voltage clamp, TRPV3-6M + 5PM in oocytes; format: cell-based
# T1 construct: expressed in transfected cells; host or cells: Xenopus laevis oocytes
# T1 sequence (Q8K424 1-791 W521Y/F522S/H523E/L557M/A560T/Q580E/V587L/A606V/F625L/F656I/F666Y): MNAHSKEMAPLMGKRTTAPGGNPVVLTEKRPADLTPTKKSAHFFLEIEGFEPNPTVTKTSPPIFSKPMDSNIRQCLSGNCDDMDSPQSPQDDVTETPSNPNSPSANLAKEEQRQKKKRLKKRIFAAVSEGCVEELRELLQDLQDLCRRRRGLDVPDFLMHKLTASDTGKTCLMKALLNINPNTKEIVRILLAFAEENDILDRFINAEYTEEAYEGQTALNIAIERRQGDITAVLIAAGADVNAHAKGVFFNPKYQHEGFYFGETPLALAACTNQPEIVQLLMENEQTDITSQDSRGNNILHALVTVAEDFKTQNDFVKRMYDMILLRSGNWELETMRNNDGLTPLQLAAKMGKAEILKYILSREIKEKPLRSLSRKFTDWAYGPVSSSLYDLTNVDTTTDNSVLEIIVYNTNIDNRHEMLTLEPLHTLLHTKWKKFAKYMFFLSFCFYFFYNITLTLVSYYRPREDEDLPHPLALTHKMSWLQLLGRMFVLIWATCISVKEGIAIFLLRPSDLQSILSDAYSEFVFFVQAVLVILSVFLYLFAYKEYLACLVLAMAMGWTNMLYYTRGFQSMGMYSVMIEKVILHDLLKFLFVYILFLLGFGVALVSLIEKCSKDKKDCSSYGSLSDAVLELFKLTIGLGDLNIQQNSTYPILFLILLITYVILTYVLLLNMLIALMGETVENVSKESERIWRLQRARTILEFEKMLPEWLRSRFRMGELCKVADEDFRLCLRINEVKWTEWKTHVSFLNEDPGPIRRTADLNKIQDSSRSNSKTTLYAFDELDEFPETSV
# Procedure: All channel constructs were expressed in Xenopus laevis oocytes and studied using the two-electrode voltage clamp technique (TEVC) following 1–4 days of incubation after cRNA injection. The animal care and experimental procedures were performed in accordance with the Guide for the Care and Use of Laboratory Animals and were approved by the Animal Care and Use Committee of the National Institute of Neurological Disorders and Stroke (Animal protocol number 1253–17). Oocytes were removed surgically and incubated with agitation for 1 hr in a solution containing (in mM) 82.5 NaCl, 2.5 KCl, 1 MgCl2, 5 HEPES, pH 7.6 (with NaOH), and collagenase (2 mg/ml; Worthington Biochemical, Lakewood, NJ). Defolliculated oocytes were injected with cRNA for each of the constructs and incubated at 17°C in a solution containing (in mM) 96 NaCl, 2 KCl, 1 MgCl2, 1.8 CaCl2, 5 HEPES, pH 7.6 (with NaOH), and gentamicin (50 μg/ml, GIBCO-BRL, Gaithersburg, MD). Oocyte membrane voltage was controlled using an OC-725C oocyte clamp (Warner Instruments, Hamden, CT). Data were filtered at 1–3 kHz and digitized at 20 kHz using pClamp software (Molecular Devices, Sunnyvale, CA) and a Digidata 1440A digitizer (Axon Instruments). Microelectrode resistances were 0.1–1 MΩ when filled with 3 M KCl. For recording TRP channel currents, the external recording solution contained (in mM) 100 KCl, 10 HEPES, pH 7.6 (with KOH). Experiments were performed at room temperature (~22°C), except as indicated otherwise. […] Current time courses were obtained by stepping membrane voltage every 2 s from a holding potential of 0 mV to either −60 or +60 mV for 100 ms, and plotting the mean steady-state current at the end of each voltage step as a function of total recording time. I-V relations were obtained similarly, but voltage was stepped every 2 s to a different value, in 10 mV increments and starting at −60 mV.
compound,measurement,setting,value
"C=C(C)[C@]12C[C@@H](C)[C@@]34O[C@](Cc5ccccc5)(O[C@@H]1[C@@H]3C=C(COC(=O)Cc1ccc(O)c(OC)c1)C[C@]1(O)C(=O)C(C)=C[C@@H]41)O2 [RTx, resiniferatoxin]",channel activation (current response),"[1]; room temperature, ±60 mV",robustly activated
same,RTx activation on cooling,[1]; temperature decreased to 10°C,reduced to baseline levels
same,dissociation of RTx,[2],exceedingly slow
same,response to RTx compared with maximal response to 2-APB,"[2]; RTx 100 nM, 2-APB 3 mM, +60 mV",similar
